According to paper PMC8637366 (Slas Discovery, 2021):
Counter-ions that a name gives are not always drawn. Like-named read-outs stand apart in the source and are kept apart here.

Key:
[1] = target: T1, Recombinant human BChE (Homo sapiens, UniProt P06276); assay: biochemical; conditions: for Emax: read-out: BChE, % Efficacy
[2] = target: recombinant human AChE (Homo sapiens, UniProt P22303); assay: biochemical; assay type: biochemical; conditions: for Emax: read-out: AChE, % Efficacy
[3] = target: T1, Recombinant human BChE; assay type: biochemical

T1 sequence (P06276 29-602): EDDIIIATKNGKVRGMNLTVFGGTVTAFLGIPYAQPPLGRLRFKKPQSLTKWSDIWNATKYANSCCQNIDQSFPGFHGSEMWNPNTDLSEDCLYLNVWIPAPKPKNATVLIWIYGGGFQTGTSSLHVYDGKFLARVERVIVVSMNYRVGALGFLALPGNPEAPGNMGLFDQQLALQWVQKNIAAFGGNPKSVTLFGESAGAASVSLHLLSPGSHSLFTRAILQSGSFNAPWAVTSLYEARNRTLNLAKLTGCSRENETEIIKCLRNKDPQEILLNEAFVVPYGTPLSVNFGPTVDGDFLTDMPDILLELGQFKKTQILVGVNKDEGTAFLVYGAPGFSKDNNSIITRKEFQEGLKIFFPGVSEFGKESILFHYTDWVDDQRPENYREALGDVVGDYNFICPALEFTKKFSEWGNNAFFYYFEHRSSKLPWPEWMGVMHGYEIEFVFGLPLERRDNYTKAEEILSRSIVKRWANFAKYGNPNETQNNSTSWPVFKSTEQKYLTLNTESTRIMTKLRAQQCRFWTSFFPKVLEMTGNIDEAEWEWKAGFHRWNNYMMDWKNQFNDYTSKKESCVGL
Chain of recombinant human AChE (P22303 32-614): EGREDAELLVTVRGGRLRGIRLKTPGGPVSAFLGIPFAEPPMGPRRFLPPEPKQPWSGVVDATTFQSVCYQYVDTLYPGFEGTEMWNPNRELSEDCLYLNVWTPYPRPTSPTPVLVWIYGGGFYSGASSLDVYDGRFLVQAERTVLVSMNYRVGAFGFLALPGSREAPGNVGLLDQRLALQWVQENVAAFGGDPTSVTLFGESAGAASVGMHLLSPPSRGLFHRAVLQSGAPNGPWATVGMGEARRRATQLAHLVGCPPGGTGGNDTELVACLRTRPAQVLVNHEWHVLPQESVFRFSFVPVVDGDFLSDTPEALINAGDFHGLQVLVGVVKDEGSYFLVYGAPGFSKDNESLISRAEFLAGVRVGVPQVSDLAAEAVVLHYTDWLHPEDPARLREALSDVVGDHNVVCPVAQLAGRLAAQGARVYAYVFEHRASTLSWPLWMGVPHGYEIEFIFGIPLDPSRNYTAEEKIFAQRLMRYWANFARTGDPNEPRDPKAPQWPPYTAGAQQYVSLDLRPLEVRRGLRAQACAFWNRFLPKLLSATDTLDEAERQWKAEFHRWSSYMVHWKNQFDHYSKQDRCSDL

In the case of `COc1cc(O)ccc1OCCNCC(O)COc1cccc2[nH]c3ccccc3c12` (stereo not shown) [4-hydroxyphenyl carvedilol], the “BChE, % Efficacy” value [1] is reported as 0.97 ± 0.11 (–100 ± 2.04) %, the IC50 ([1]; read-out: BChE, IC50) is reported as 0.97 µM and the “AChE, IC50” value [2] is reported as “Inactive”.

Compound `Nc1c2ccccc2nc2ccccc12` [9-Aminoacridine monohydrochloride monohydrate] has an IC50 ([1]; BChE, IC50) of 0.16 µM and an Emax [1] of -101%.

In the case of `CCN(CCCc1ccccc1)CCCc1ccccc1` [Alverine citrate], the IC50 ([1]; BChE, IC50) is reported as 0.38 µM, the Emax [1] is reported as -95% and the “AChE, IC50” value [2] is reported as “Inactive”.

In the case of `O=c1nc(-c2ccccn2)sc2ccccc12` [BTZO 1], the “BChE, % Efficacy” value [1] is reported as 0.49 ± 0.25 (–94.6 ± 2.01) %, the IC50 ([1]; read-out: BChE, IC50) is reported as 0.49 µM and the “AChE, IC50” value [2] is reported as “Inactive”.

`CN(C)C(=O)Oc1cc(OC(=O)N(C)C)cc(C(O)CNC(C)(C)C)c1` (stereo not shown) [Bambuterol hydrochloride] was tested, and the IC50 ([1]; BChE, IC50) was 0.03 µM, the Emax [1] was -91.4% and the “AChE, IC50” value [2] was “Inactive”.

`N#CC(c1ccnc(OCc2ccc(CN3CCOCC3)cc2)n1)c1nc2ccccc2s1` (stereo not shown) [Bentamapimod] was tested, and the IC50 ([1]; BChE, IC50) was 0.33 µM, the Emax [1] was -98.8% and the AChE inhibition [2] was “did not show AChE inhibition”. The “AChE, IC50” value [2] was “Inactive”.

With `COc1ccc(CN(C(=O)[C@@H](N)Cc2c(C)cc(C(N)=O)cc2C)[C@@H](C)c2ncc(-c3ccccc3)[nH]2)cc1C(=O)O` [Eluxadoline] the IC50 ([1]; BChE, IC50) was 0.34 µM, the Emax [1] was -100% and the “AChE, IC50” value [2] was “Inactive”.

For `O=C(CN1CCN(Cc2ccc3c(c2)OCO3)CC1)N1c2ccccc2Sc2ccccc21` [Fenoverine], the IC50 ([1]; BChE, IC50) was 0.09 µM, the Emax [1] was -97.3% and the AChE inhibition [2] was “did not show AChE inhibition”. The “AChE, IC50” value [2] was “Inactive”.

With `Cc1c(Cl)c(=O)oc2cc(OP(=O)(OCCCl)OCCCl)ccc12` [Haloxon] the IC50 ([1]; BChE, IC50) was 0.03 µM, the Emax [1] was -91.2% and the IC50 [2] was 0.32 µM. The Emax [2] was -101%.

`Clc1ccc(Nc2nc3ccccc3c3nc(C4CCCCC4)[nH]c23)cc1Cl` [LUF6000] was tested, and the “inhibition against BChE in the fluorescent assay” value [3] was “did not show inhibition”.

Compound `Cc1c[nH]c2ncnc(N3CCC(CN)(C(=O)Nc4cccc(OC(=O)N(C)C)c4)CC3)c12` [LX-7101] has an IC50 ([1]; BChE, IC50) of 0.22 µM, an Emax [1] of -96.6% and an IC50 [2] of 7.71 µM. For the same compound, the Emax [2] was -92.4%.

`CCCCn1c(-c2ccccc2)nc(-c2ccccc2)c1CN(Cc1ccc2c(c1)OCO2)Cc1ccc2c(c1)OCO2` [NDT 9513727, N,N-Bis(1,3-benzodioxol-5-ylmethyl)-1-butyl-2,4-diphenyl-1H-imidazole-5-methanamine] was tested, and the IC50 ([1]; BChE, IC50) was 0.21 µM, the Emax [1] was -101% and the AChE inhibition [2] was “did not show AChE inhibition”. For the same compound, the “AChE, IC50” value [2] was “Inactive”.

For `CN1CCc2cc(Cl)c(O)cc2[C@@H](c2cccc3c2OCC3)C1` [NNC 756], the “BChE, % Efficacy” value [1] was 0.84 ± 0.11 (–98.2 ± 6.31) %, the IC50 ([1]; read-out: BChE, IC50) was 0.84 µM and the “AChE, IC50” value [2] was “Inactive”.

`CN(C)C(=O)Oc1cccc([N+](C)(C)C)c1` [Neostigmine bromide] gave an IC50 ([1]; BChE, IC50) of 0.9 µM, an Emax [1] of -102% and an Emax [2] of -94.6%.

`CCCCCCCCCCC[C@@H](C[C@@H]1OC(=O)[C@H]1CCCCCC)OC(=O)[C@H](CC(C)C)NC=O` [Orlistat] gave an IC50 ([1]; BChE, IC50) of 0.12 µM, an Emax [1] of -92.9% and an Emax [2] of -80.5%.

Compound `CNC(=O)Oc1ccc2c(c1)[C@]1(C)CCN(C)[C@@H]1N2C` [Physostigmine] has an Emax [1] of -98.4% and an Emax [2] of -103%.

In the case of `CC(C)OC(=O)C1=CN(C(=O)c2ccc(F)c(F)c2)CC(C)(C)c2c1[nH]c1ccccc21` [Turofexorate isopropyl], the IC50 ([1]; BChE, IC50) is reported as 0.29 µM, the Emax [1] is reported as -98.5% and the AChE inhibition [2] is reported as “did not show AChE inhibition”. For the same compound, the “AChE, IC50” value [2] was “Inactive”.

With `CCN(CC)C(C)CN1c2ccccc2Sc2ccccc21` (stereo not shown) [ethopropazine hydrochloride, Ethopropazine hydrochloride] the IC50 ([1]; BChE, IC50) was 1.7 ± 0.53 µM.

Diethylumbelliferyl phosphate was tested, and the “AChE, % Efficacy” value [2] was 0.42 ± 0.03 (–98.6 ± 5.66) %.
